Source: BigSolDB 2.1

Cl.N=C(N)Nc1ccc(C(=O)O)cc1
Conditions | solubility (mole fraction)
in ethanol, 294.95 K | 0.00291
in ethanol, 300.05 K | 0.00316
in ethanol, 305.95 K | 0.00343
in ethanol, 310.25 K | 0.00387
in ethanol, 315.25 K | 0.0042
in ethanol, 320.25 K | 0.00478
in ethanol, 325.55 K | 0.00514
in ethanol, 330.65 K | 0.00558
in isopropanol, 296.35 K | 0.0008
in isopropanol, 301.75 K | 0.00106
in isopropanol, 307.55 K | 0.00127
in isopropanol, 312.95 K | 0.00149
in isopropanol, 317.35 K | 0.00158
in isopropanol, 321.35 K | 0.0017
in isopropanol, 325.15 K | 0.00186
in isopropanol, 328.25 K | 0.00201
in methanol, 297.95 K | 0.0118
in methanol, 302.45 K | 0.0128
in methanol, 307.45 K | 0.0143
in methanol, 312.95 K | 0.0155
in methanol, 317.45 K | 0.017
in methanol, 321.25 K | 0.0181
in methanol, 324.85 K | 0.0192
in methanol, 328.55 K | 0.0203
in n-butanol, 293.25 K | 0.00103
in n-butanol, 296.85 K | 0.00124
in n-butanol, 300.05 K | 0.00137
in n-butanol, 303.15 K | 0.00149
in n-butanol, 307.55 K | 0.00163
in n-butanol, 314.75 K | 0.00182
in n-butanol, 320.15 K | 0.00194
in n-butanol, 327.15 K | 0.00216
in n-pentanol, 292.05 K | 0.00042
in n-pentanol, 296.55 K | 0.00071
in n-pentanol, 301.75 K | 0.0008
in n-pentanol, 310.05 K | 0.00096
in n-pentanol, 316.75 K | 0.00103
in n-pentanol, 322.95 K | 0.00114
in n-pentanol, 327.95 K | 0.00121
in n-pentanol, 334.15 K | 0.00136
in n-propanol, 295.05 K | 0.00368
in n-propanol, 300.75 K | 0.00436
in n-propanol, 305.75 K | 0.00495
in n-propanol, 309.95 K | 0.00564
in n-propanol, 314.55 K | 0.00633
in n-propanol, 319.35 K | 0.00716
in n-propanol, 322.85 K | 0.00753
in n-propanol, 327.75 K | 0.00815
in water, 298.05 K | 0.00532
in water, 304.55 K | 0.00685
in water, 309.95 K | 0.00884
in water, 314.85 K | 0.0108
in water, 318.55 K | 0.0129
in water, 323.55 K | 0.0155
in water, 328.85 K | 0.018
in water, 333.65 K | 0.0218
